According to patent US8492405B2, “Glucokinase-activating fused heterocyclic compounds and methods of treating diabetes and obesity” (Takeda Pharmaceutical Company Limited, priority 2006, dated 2013):

Key:
[1] = target: T1, GST-hLGK1 (human liver type GK) (Homo sapiens, UniProt P35557); assay: Determination of GK activity value (Mant-ATP/Mant-ADP capillary electrophoresis); format: biochemical; conditions: GK activation; GST-hLGK1, D-glucose, 37° C. for 60 min
T1 construct: made in house; host or cells: Escherichia coli BL21
T1 sequence (P35557 1-464 isoform P35557-3): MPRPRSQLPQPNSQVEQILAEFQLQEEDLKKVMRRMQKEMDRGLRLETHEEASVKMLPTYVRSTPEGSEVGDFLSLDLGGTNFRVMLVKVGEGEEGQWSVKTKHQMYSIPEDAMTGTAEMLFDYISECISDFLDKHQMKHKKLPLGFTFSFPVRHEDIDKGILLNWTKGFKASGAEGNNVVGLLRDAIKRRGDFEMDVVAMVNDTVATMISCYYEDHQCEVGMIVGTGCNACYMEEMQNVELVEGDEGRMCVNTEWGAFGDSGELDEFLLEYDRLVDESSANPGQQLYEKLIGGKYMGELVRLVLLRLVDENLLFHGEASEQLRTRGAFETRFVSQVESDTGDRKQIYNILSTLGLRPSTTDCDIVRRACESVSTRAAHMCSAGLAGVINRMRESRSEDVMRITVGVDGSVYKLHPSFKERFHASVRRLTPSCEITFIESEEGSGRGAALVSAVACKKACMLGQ
Method: A solution (5 μL) of test compound in 50% dimethyl sulfoxide was added to each well of 384 well black plate (Nalge Nunc International K.K.). Then, a solution (35 μL) obtained by diluting GST-hLGK1 obtained in Reference Example 2A with measurement buffer (containing 50 mM HEPES (pH 7.4), 200 mM KCl, 5 mM MgCl2, 2.5 mM DTT and 50 μM 2′-(or -3′)—O—(N-methylanthraniloyl) adenosine 5′-triphosphate (Mant-ATP) (Jena Bioscience GmbH)) to 6 μg/mL was added to each well.
Each well was stood at 37° C. for 10 min, and 25 mM D-glucose solution (10 μL) was added to start the reaction.
Each well after the reaction was stood at 37° C. for 60 min, and the reaction was quenched by adding 25 μL of a quenching solution (containing 200 mM HEPES (pH 7.4), 20 mM MgCl2, 200 mM EDTA, 0.03% Triton-X 100, 0.3% Coating 3 reagent (Caliper Life Sciences, Inc.)).
2′-(or -3′)-O—(N-methylanthraniloyl)adenosine 5′-triphosphate (Mant-ATP, substrate) and Mant-ADP (reaction resultant product) were separated from each well after the reaction by a microchip type capillary electrophoresis apparatus 250 HTS (Caliper Life Sciences, Inc.). The reaction rate [(reaction resultant product peak height)/(reaction resultant product peak height+substrate peak height)×100(%)] was calculated from the ratio of the substrate peak height and reaction resultant product peak height obtained by fluorescence detection (excitation wavelength 355 nm, measurement wavelength 460 nm) and used as the index of GK activity.
As a control group, the reaction rate was calculated in the same manner as above except that “solution in 50% dimethyl sulfoxide (free of a test compound)” was used instead of “solution of test compound in 50% dimethyl sulfoxide”.
Using the percentage obtained by subtracting the reaction rate of the control group from the reaction rate of the well added with the test compound (test compound addition group) as a GK activation value of the test compound, a concentration dependency curve of the test compound was drawn, and the concentration of the test compound at the middle point between the maximum activity value of the test compound addition group and the activity value of the control group was taken as an EC50 value.

Question: With `CCOC(=O)c1cc2c([nH]1)c(N(C)S(=O)(=O)c1cccs1)cn2Cc1ccccc1` [Example 18, ethyl 4-benzyl-6-[methyl(2-thienylsulfonyl)amino]-1,4-dihydropyrrolo[3,2-b]pyrrole-2-carboxylate] as the molecule, how does the EC50 [1] read?
Answer: 430 nM

Question: What about the melting point of the same molecule?
Answer: 120 °C

Question: Which EC50 [1] does the source give for `Cc1sc2cc(C3=NCCS3)[nH]c2c1N(C)S(=O)(=O)c1cccs1` [Example 5, N-[5-(4,5-dihydro-1,3-thiazol-2-yl)-2-methyl-4H-thieno[3,2-b]pyrrol-3-yl]-N-methylthiophene-2-sulfonamide] here?
Answer: 74 nM

Question: And the melting point?
Answer: 140 °C

Question: For `Cc1sc2cc(C(=O)NCC3(SCc4ccccc4)CCNCC3)[nH]c2c1N(C)S(=O)(=O)c1cccs1` [Example 6, N-{[4-(benzylthio)piperidin-4-yl]methyl}-2-methyl-3-[methyl(2-thienylsulfonyl)amino]-4H-thieno[3,2-b]pyrrole-5-carboxamide], which melting point is on record?
Answer: 222 °C

Question: For `CCOC(=O)c1cc2nc(C)n(Cc3ccccc3)c2[nH]1` [Example 1, ethyl 3-benzyl-2-methyl-3,4-dihydropyrrolo[2,3-d]imidazole-5-carboxylate], which EC50 [1] is on record?
Answer: 3600 nM

Question: And the melting point?
Answer: 193 °C

Question: Which melting point does the source give for `CON(C)C(=O)c1cc2sc(C)c(N(C)S(=O)(=O)c3cccs3)c2[nH]1` [Example 13, N-methoxy-N,2-dimethyl-3-[methyl(2-thienylsulfonyl)amino]-4H-thieno[3,2-b]pyrrole-5-carboxamide] here?
Answer: 187 °C

Question: For `CCOC(=O)c1nnc(-c2cc3sc(C)c(N(C)S(=O)(=O)c4cccs4)c3[nH]2)s1` [Example 10, ethyl 5-{2-methyl-3-[methyl(2-thienylsulfonyl)amino]-4H-thieno[3,2-b]pyrrol-5-yl}-1,3,4-thiadiazole-2-carboxylate], which melting point is on record?
Answer: 209 °C

Question: Which melting point does the source give for `CC(=O)c1cc2sc(C)c(N(C)S(=O)(=O)c3cccs3)c2[nH]1` [Example 14, N-(5-acetyl-2-methyl-4H-thieno[3,2-b]pyrrol-3-yl)-N-methylthiophene-2-sulfonamide] here?
Answer: 220 °C

Question: With `CCOC(=O)C(=O)NNC(=O)c1cc2sc(C)c(N(C)S(=O)(=O)c3cccs3)c2[nH]1` [Example 9, ethyl [2-({2-methyl-3-[methyl(2-thienylsulfonyl)amino]-4H-thieno[3,2-b]pyrrol-5-yl}carbonyl)hydrazino](oxo)acetate] as the molecule, how does the melting point read?
Answer: 135 °C

Question: Which melting point does the source give for `CCOC(=O)c1cc2c([nH]1)c(N(C)S(=O)(=O)c1cccs1)cn2CC` [Example 15, ethyl 4-ethyl-6-[methyl(2-thienylsulfonyl)amino]-1,4-dihydropyrrolo[3,2-b]pyrrole-2-carboxylate] here?
Answer: 122 °C

Question: Which results are given for `CC(=O)N1CCC2(CC1)CN=C(c1cc3sc(C)c(N(C)S(=O)(=O)c4cccs4)c3[nH]1)S2` [Example 8, N-[5-(8-acetyl-1-thia-3,8-diazaspiro[4.5]deca-2-en-2-yl)-2-methyl-4H-thieno[3,2-b]pyrrol-3-yl]-N-methylthiophene-2-sulfonamide]?
Answer: EC50 [1]: 160 nM; melting point: 231 °C

Question: With `Cc1sc2cc(C3=NCC4(CCNCC4)S3)[nH]c2c1N(C)S(=O)(=O)c1cccs1` [Example 7, N-methyl-N-[2-methyl-5-(1-thia-3,8-diazaspiro[4.5]deca-2-en-2-yl)-4H-thieno[3,2-b]pyrrol-3-yl]thiophene-2-sulfonamide] as the molecule, how does the melting point read?
Answer: 196 °C

Question: Which EC50 [1] does the source give for `CCn1cc(N(C)S(=O)(=O)c2cccs2)c2[nH]c(C3=NCCS3)cc21` [Example 17, N-[5-(4,5-dihydro-1,3-thiazol-2-yl)-1-ethyl-1,4-dihydropyrrolo[3,2-b]pyrrol-3-yl]-N-methylthiophene-2-sulfonamide] here?
Answer: 350 nM

Question: And the melting point?
Answer: 163 °C

Question: Which melting point does the source give for `CCOC(=O)c1cc2sc(C)c(N(C)C(=O)OCc3ccccc3)c2[nH]1` [Example 2, ethyl 3-{[(benzyloxy)carbonyl](methyl)amino}-2-methyl-4H-thieno[3,2-b]pyrrole-5-carboxylate] here?
Answer: 122 °C

Question: Which melting point does the source give for `CCOC(=O)c1cc2sc(C)c(N(C)S(=O)(=O)c3cccs3)c2[nH]1` [Example 3, ethyl 2-methyl-3-[methyl(2-thienylsulfonyl)amino]-4H-thieno[3,2-b]pyrrole-5-carboxylate] here?
Answer: 161 °C

Question: For `COC(OC)C1CN=C(c2cc3sc(C)c(N(C)S(=O)(=O)c4cccs4)c3[nH]2)S1` (centres unmarked) [Example 12, N-{5-[5-(dimethoxymethyl)-4,5-dihydro-1,3-thiazol-2-yl]-2-methyl-4H-thieno[3,2-b]pyrrol-3-yl}-N-methylthiophene-2-sulfonamide], which melting point is on record?
Answer: 185 °C
